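48-hour exposure; five concentrations; linearly interpolated endpoints. GI50: concentration for 50% inhibition of growth.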 Calls of active or inactive are those of the source. Cut-off read from the data, not from the text of the source: active = GI50 up to about 1.1 µM and inactive = higher.
Key:
Assay in all cases: inhibition of tumour cell growth, NCI panel, 48 h
786-0 = system: 786-0
A549 = system: A549
ACHN = system: ACHN
CAKI-1 = system: CAKI-1
CCRF-CEM = system: CCRF-CEM
DMS-273 = system: DMS-273
EKVX = system: EKVX
HCT-116 = system: HCT-116
HL-60 = system: HL-60
HOP-92 = system: HOP-92
HT-29 = system: HT-29
IGROV-1 = system: IGROV-1
K562 = system: K562
KM-20L2 = system: KM-20L2
KM12 = system: KM12
LOX IMVI = system: LOX IMVI
LXFL 529 = system: LXFL 529
M14 = system: M14
M19-MEL = system: M19-MEL
MOLT-4 = system: MOLT-4
NCI-H226 = system: NCI-H226
NCI-H522 = system: NCI-H522
OVCAR-3 = system: OVCAR-3
RPMI-8226 = system: RPMI-8226
RXF 631 = system: RXF 631
SF-268 = system: SF-268
SF-295 = system: SF-295
SF-539 = system: SF-539
SK-MEL-28 = system: SK-MEL-28
SK-MEL-5 = system: SK-MEL-5
SK-OV-3 = system: SK-OV-3
SNB-75 = system: SNB-75
SR = system: SR
SW-620 = system: SW-620
TK-10 = system: TK-10
UACC-257 = system: UACC-257
UACC-62 = system: UACC-62
A498 = system: A498
BT-549 = system: BT-549
COLO 205 = system: COLO 205
DLD-1 = system: DLD-1
DMS-114 = system: DMS-114
DU-145 = system: DU-145
HCC 2998 = system: HCC 2998
HCT-15 = system: HCT-15
HOP-18 = system: HOP-18
HOP-62 = system: HOP-62
Hs-578T = system: Hs-578T
MCF7 = system: MCF7
MDA-MB-231 = system: MDA-MB-231
MDA-MB-435 = system: MDA-MB-435
MDA-N = system: MDA-N
Malme-3M = system: Malme-3M
NCI-H23 = system: NCI-H23
NCI-H460 = system: NCI-H460
NCI/ADR-RES = system: NCI/ADR-RES
OVCAR-4 = system: OVCAR-4
OVCAR-5 = system: OVCAR-5
OVCAR-8 = system: OVCAR-8
PC-3 = system: PC-3
RXF 393 = system: RXF 393
SK-MEL-2 = system: SK-MEL-2
SN12C = system: SN12C
SNB-19 = system: SNB-19
SNB-78 = system: SNB-78
T47D = system: T47D
U-251 = system: U-251
UO-31 = system: UO-31
XF498 = system: XF498

In the case of N#CCc1ccccc1/C(C#N)=C1/OC(=N)C(c2ccccc2CC#N)C1=O (stereo not given), the GI50 (786-0) is reported as > 100 µM (inactive), the GI50 (A549) is reported as > 100 µM (inactive) and the GI50 (ACHN) is reported as > 100 µM (inactive). For the same molecule, the GI50 (CAKI-1) was > 100 µM (inactive), the GI50 (CCRF-CEM) was > 100 µM (inactive) and the GI50 (DMS-273) was > 100 µM (inactive). The GI50 (EKVX) was > 100 µM (inactive), the GI50 (HCT-116) was > 100 µM (inactive) and the GI50 (HL-60) was > 100 µM (inactive). The GI50 (HOP-92) was > 100 µM (inactive), the GI50 (HT-29) was 92 µM (inactive) and the GI50 (IGROV-1) was > 100 µM (inactive). The GI50 (K562) was > 100 µM (inactive), the GI50 (KM-20L2) was > 100 µM (inactive) and the GI50 (KM12) was > 100 µM (inactive). For the same molecule, the GI50 (LOX IMVI) was > 100 µM (inactive), the GI50 (LXFL 529) was 43.2 µM (inactive) and the GI50 (M14) was > 100 µM (inactive). For the same molecule, the GI50 (M19-MEL) was > 100 µM (inactive), the GI50 (MOLT-4) was 57.8 µM (inactive) and the GI50 (NCI-H226) was > 100 µM (inactive). For the same molecule, the GI50 (NCI-H522) was 47.4 µM (inactive), the GI50 (OVCAR-3) was > 100 µM (inactive) and the GI50 (RPMI-8226) was > 100 µM (inactive). The GI50 (RXF 631) was > 100 µM (inactive), the GI50 (SF-268) was > 100 µM (inactive) and the GI50 (SF-295) was > 100 µM (inactive). The GI50 (SF-539) was > 100 µM (inactive), the GI50 (SK-MEL-28) was > 100 µM (inactive) and the GI50 (SK-MEL-5) was > 100 µM (inactive). For the same molecule, the GI50 (SK-OV-3) was > 100 µM (inactive), the GI50 (SNB-75) was > 100 µM (inactive) and the GI50 (SR) was > 100 µM (inactive). The GI50 (SW-620) was > 100 µM (inactive), the GI50 (TK-10) was > 100 µM (inactive) and the GI50 (UACC-257) was > 100 µM (inactive). The GI50 (UACC-62) was 42.2 µM (inactive).
For C=C1C(=O)OC2CC3(C)OC3CC/C(C)=C/C(OC(C)=O)C12 (stereo not given), the GI50 (786-0) was 4.6 µM (inactive), the GI50 (A498) was 15.8 µM (inactive) and the GI50 (A549) was 17.3 µM (inactive). The GI50 (ACHN) was 11.2 µM (inactive), the GI50 (BT-549) was 9.71 µM (inactive) and the GI50 (CAKI-1) was 2.13 µM (inactive). For the same molecule, the GI50 (CCRF-CEM) was 2.12 µM (inactive), the GI50 (COLO 205) was 1.75 µM (inactive) and the GI50 (DLD-1) was 2.75 µM (inactive). For the same molecule, the GI50 (DMS-114) was 7.4 µM (inactive), the GI50 (DMS-273) was 14.9 µM (inactive) and the GI50 (DU-145) was 15.1 µM (inactive). For the same molecule, the GI50 (EKVX) was 16.9 µM (inactive), the GI50 (HCC 2998) was 16.9 µM (inactive) and the GI50 (HCT-116) was 4.05 µM (inactive). For the same molecule, the GI50 (HCT-15) was 5.57 µM, the GI50 (HL-60) was 1.41 µM (inactive) and the GI50 (HOP-18) was 10.4 µM (inactive). For the same molecule, the GI50 (HOP-62) was 18.7 µM (inactive), the GI50 (HOP-92) was 1.82 µM (inactive) and the GI50 (HT-29) was 4.15 µM (inactive). For the same molecule, the GI50 (Hs-578T) was 13.2 µM (inactive), the GI50 (IGROV-1) was 17.1 µM (inactive) and the GI50 (K562) was 2.47 µM (inactive). For the same molecule, the GI50 (KM-20L2) was 6.55 µM (inactive), the GI50 (KM12) was 15.1 µM (inactive) and the GI50 (LOX IMVI) was 5.22 µM (inactive). The GI50 (LXFL 529) was 2.14 µM (inactive), the GI50 (M14) was 3.32 µM (inactive) and the GI50 (M19-MEL) was 8.04 µM (inactive). The GI50 (MCF7) was 4.59 µM (inactive), the GI50 (MDA-MB-231) was 12.4 µM (inactive) and the GI50 (MDA-MB-435) was 12.6 µM (inactive). The GI50 (MDA-N) was 6.12 µM (inactive), the GI50 (MOLT-4) was 3.37 µM (inactive) and the GI50 (Malme-3M) was 2.55 µM (inactive). For the same molecule, the GI50 (NCI-H226) was 7.45 µM (inactive), the GI50 (NCI-H23) was 13.3 µM (inactive) and the GI50 (NCI-H460) was 15.4 µM (inactive). The GI50 (NCI-H522) was 1.04 µM (active), the GI50 (NCI/ADR-RES) was 11.3 µM (inactive) and the GI50 (OVCAR-3) was 10.5 µM (inactive). For the same molecule, the GI50 (OVCAR-4) was 6.01 µM (inactive), the GI50 (OVCAR-5) was 8.51 µM (inactive) and the GI50 (OVCAR-8) was 4.71 µM (inactive). For the same molecule, the GI50 (PC-3) was 13.2 µM (inactive), the GI50 (RPMI-8226) was 2.13 µM (inactive) and the GI50 (RXF 393) was 4.79 µM (inactive). For the same molecule, the GI50 (SF-268) was 17 µM (inactive), the GI50 (SF-295) was 14 µM (inactive) and the GI50 (SF-539) was 6.37 µM (inactive). The GI50 (SK-MEL-28) was 5.56 µM (inactive), the GI50 (SK-MEL-2) was 15.5 µM (inactive) and the GI50 (SK-MEL-5) was 8.02 µM (inactive). For the same molecule, the GI50 (SK-OV-3) was 20 µM (inactive), the GI50 (SN12C) was 11.5 µM (inactive) and the GI50 (SNB-19) was 18.3 µM (inactive). The GI50 (SNB-75) was 8.77 µM (inactive), the GI50 (SNB-78) was 9.44 µM (inactive) and the GI50 (SR) was 3.07 µM (inactive). For the same molecule, the GI50 (SW-620) was 1.72 µM (inactive), the GI50 (T47D) was 3.76 µM (inactive) and the GI50 (TK-10) was 3.61 µM (inactive). The GI50 (U-251) was 18.6 µM (inactive), the GI50 (UACC-257) was 9.64 µM (inactive) and the GI50 (UACC-62) was 9.89 µM (inactive). For the same molecule, the GI50 (UO-31) was 13.6 µM (inactive) and the GI50 (XF498) was 2 µM (inactive).
